Source: US20240115545A1, “PHARMACEUTICAL COMPOSITION CONTAINING B-LAPACHONE AS ACTIVE INGREDIENT FOR PREVENTION OR TREATMENT OF CHOLESTATIC LIVER DISEASE” (CUROME BIOSCIENCES CO., LTD., priority 2020, published 2024)

Key:
[1] = tested on: DDC-induced cholestatic liver disease mice; assay: Sirius Red and Masson's trichrome staining of liver connective tissue, DDC-induced cholestatic liver disease mice; assay type: in vivo; settings: 40 and 80 mg/kg in diet, DDC 14 days
Protocol: DDC-induced cholestatic liver disease mouse animal models were prepared according to the method of Elisa Pose et al. by using 8-week-old C57BL/6 male mice (Samtako, Korea). Briefly, cholestatic liver disease was induced by feeding a standard rodent diet supplemented with 0.1% (w/w) DDC for 7 or 14 days. The 12-hour light and dark cycle was maintained and animals were allowed to free access to water. The standard rodent diet included medium wheat, wheat, corn, and corn gluten flour, and soybean oil (14% protein). All animal related procedures were reviewed and approved by the Institutional Animal Care and Use Committee of Korea Research Institute of Bioscience and Biotechnology (KRIBB), KRIBB-AEC-20165). The tissue staining of the cholestatic liver disease animal models was measured through H&E staining (basic tissue staining), Sirius Red staining (collagen staining), and Masson's trichrome staining (collagen, cytoplasm, muscle fibers, etc.), and the tissue staining was measured by a skilled researcher. To investigate the preventive effect of β-Lapachone (BL) on cholestatic liver disease, the mice were fed a diet with 0 (DDC-vehicle), 40 mg/kg (DDC-BL40) and 80 mg/kg (DDC-BL80) 3 days before DDC treatment (total 17 days) and, after 3 days, were fed a diet with DDC (total 14 days). […]

[2] = tested on: inflammation-related genes; assay: mRNA levels of inflammatory cytokine genes in liver tissue (Example 3.3); assay type: in vivo, mice; settings: β-lapachone with DDC in diet, 7 days
Protocol: After 8-week-old C57BL/6 male mice (Samtako, Korea) were divided into each group (=6), the mice were fed a diet with normal (vehicle), control (DDC), DDC+β-lapachone 20 mg/kg, DDC+β-lapachone 40 mg/kg, DDC+β-lapachone 80 mg/kg, DDC+β-lapachone 100 mg/kg, and positive control DDC+ursodeoxycholic acid 100 mg/kg, and DDC+obeticholic acid 30 mg/kg (total 7 days). After 7 days of treatment, the mice were sacrificed and then the blood was collected from the heart. Thereafter, the levels of alanine aminotransferase (ALT), aspartate aminotransferase (AST), alkaline phosphatase (ALP), and bilirubin, which are blood indexes, were analyzed, and shown in FIG. 4.
In the cholestatic liver disease, the inflammation in the portal vein and damage to the bile ducts in the liver occur chronically, resulting in cholestasis and liver fibrosis. The mRNA levels of inflammatory cytokine genes in the liver tissue of the cholestatic liver disease mouse animal models obtained by the same method as in Example 3.1 were measured, and shown in FIG. 6.

[3] = tested on: DSS-induced inflammatory bowel disease mice; assay: Colon length in DSS-induced inflammatory bowel disease mice (Example 6.2); assay type: in vivo; settings: DSS + β-lapachone 80 mg/kg
Protocol: After 8-week-old C57BL/6 female mice (Samtako, Korea) were divided into each group (=10), each experimental group was fed a standard rodent diet supplemented with 3% (w/w) DSS in drinking water for the first 5 days to induce acute colitis and orally administered control (vehicle), β-lapachone 40 mg/kg, and β-lapachone 80 mg/kg for 14 days.
By the same method as in Example 6.1, experimental groups were divided into a DSS untreated group (Control), a DSS treated group, and a DSS+β-lapachone 80 mg/kg treated group, respectively, and treated. After the end of the experiment, the mice were sacrificed to remove the colon, and the accurate colon length was measured using a Vernier caliper, and is shown FIGS. 11A and 11B. In addition, the mRNA levels of genes of interleukin-1beta (IL-1β), interleukin-6 (IL-6), interleukin-18 (IL-18), interferon-γ (INF-γ), tumor necrosis factor-α (TNF-α), tumor necrosis factor-β (TNF-β), and monocyte chemoattractant protein-1 (MCP-1), which were inflammatory cytokine factors in the colon tissue, were analyzed by a real-time polymerase chain reaction through a conventional experiment procedure, and are shown in FIG. 12.

[4] = tested on: LX-2 hepatic stellate cell line; assay: Fibronectin and α-SMA protein expression in TGF-β1-treated LX-2 hepatic stellate cells (immunoblotting); assay type: cell-based; settings: LX-2 cells, 1 ng/ml TGF-β1 + 0.5 or 1 μM β-lapachone, 24 hours
Protocol: Considering that inflammation and fibrosis of bile ducts cause cirrhosis in cholestatic liver disease, experiments were performed on the LX-2 hepatic stellate cell line model by using the method of Takaaki Higashi et al. (2017). The LX-2 cell line was subcultured in DMEM containing 10% FBS, 2 mM glutamine, 100 U penicillin, and 0.1 mg/ml streptomycin. The LX-2 cell line was added into a 6-well plate at a density of 16×10^4 cells/well, and cultured in DMEM containing 1 ng/ml TGF-β1, 1 ng/ml TGF-β1+0.5 μM β-lapachone or 1 ng/ml TGF-β1+1 μM β-lapachone for 24 hours. Thereafter, the protein expression levels of the fibrosis-related genes fibronectin and α-SMA of the obtained cells were measured by protein immunoblotting according to a conventional method known in the art.

SMILES: CC1(C)CCC2=C(O1)c1ccccc1C(=O)C2=O [β-lapachone]
- formation of connective tissues / fibrosis progression (Sirius Red and Masson's trichrome staining) [1]: inhibited such fibrosis progression
- transcriptional level of IL-1β in liver [2]: inhibited
- transcriptional level of TNFα in liver [2]: inhibited
- colon length shortened by DSS [3]: recovered
- protein expression level of fibronectin increased by TGF-β1 [4]: reduced depending on the concentration
- protein expression level of α-SMA increased by TGF-β1 [4]: reduced depending on the concentration
